Test results: US20100324096A1, “Whitening Agent And Skin External Preparation” (SHISEIDO COMPANY LTD., priority 2008, published 2010)

Each molecule was assayed on Mouse B16 melanoma cells (assay: Melanin production inhibition test). Settings: Mus musculus, 72 h, Table 1, 3 days, minimum non-cytotoxic concentration at which melanin amount was 80% or less, read-out: Inhibitory effect on melanin production.
Assay type: cell-based
Protocol: A test for melanin production inhibition by the compounds of the formula (1) was conducted. The test method is as follows.
Melanin Production Inhibition Test
(1) Inoculation of Cells and Addition of Test Substances
Mouse B16 melanoma cells were inoculated in a six well plate at 100,000 cells/well. The next day, test substance solutions (solvent: DMSO) were added.
(2) Cell Proliferation Test
Three days after the addition of the test substance solution, the medium was removed by aspiration. Then 1 ml of EMEM medium containing 10% Alamar Blue solution was added, and a reaction was allowed to proceed at 37° C. After 30 minutes, 100 μL of the reaction mixture was transferred to a 96 well plate and fluorescence was measured at an excitation wavelength of 544 nm and a measurement wavelength of 590 nm. Using the value thus measured as a relative value of cell count, a ratio of the cell count (% cell count) of the test substance-added group to the test substance-absent group (group in which only the solvent was added) was calculated. The higher the % cell count, the lower the cytotoxicity. It was determined that a compound having the % cell count of 80% or more was non-cytotoxic, and that a compound having the % cell count of less than 80% was cytotoxic.
(3) Quantification of Melanin
The cells after the cell proliferation test were washed with PBS three times, and then lysed by addition of 200 μL of 1M NaOH to measure an absorbance at 475 nm. Using the value thus measured as a relative value of the melanin amount, a ratio of the melanin amount (%) of the test substance-added group to the test substance-absent group (group in which only the solvent was added) was calculated. The lower the ratio of the melanin amount, the higher the melanin production-inhibitory effect. […] The inhibitory effect on melanin production was evaluated according to the following criteria.
⊚: the minimum concentration for inhibition of melanin production was 1 ppm or less.
◯: the minimum concentration for inhibition of melanin production was more than 1 ppm and 10 ppm or less.
`Cc1ccccc1Nc1nc(-c2ccncc2)cs1` [Compound 1] showed a minimal effective concentration of no more than 1 µg/mL. For `Cc1ccccc1Nc1nc(-c2ccccn2)cs1` [Compound 2, 4-(pyridin-2-yl)-N-o-toluylthiazol-2-amine], the minimal effective concentration was no more than 1 µg/mL. `CCc1ccccc1Nc1nc(-c2ccccn2)cs1` [Compound 3] gave a minimal effective concentration of no more than 1 µg/mL. Work on `c1ccc(Nc2nc(-c3ccccn3)cs2)cc1` [Compound 4] yielded a minimal effective concentration of no more than 1 µg/mL. `Cc1ccc(Nc2nc(C(C)(C)C)cs2)c(C)c1` [Compound 5] was tested, and the minimal effective concentration was no more than 1 µg/mL. `COc1ccc(-c2nc(Nc3c(C)cccc3C)sc2C)cc1` [Compound 7] gave a minimal effective concentration of no more than 1 µg/mL. `CCc1ccccc1Nc1nc(-c2ccc(O)c(O)c2)cs1` [Compound 9] gave a minimal effective concentration of no more than 1 µg/mL. With `CCc1ccccc1Nc1nc(-c2ccc(O)cc2O)cs1` [Compound 10] the minimal effective concentration was no more than 1 µg/mL.

Same assay, conditions: Mus musculus, 72 h, Table 3, 3 days, minimum non-cytotoxic concentration at which melanin amount was 80% or less, read-out: Inhibitory effect on melanin production
For `C=CCN(C1=NC(C)(C)C(=C)S1)c1ccc(C)cc1C` [Compound 31], the minimal effective concentration was no more than 1 µg/mL. For `C=C1SC(Nc2ccc(C)cc2C)=NC1(C)C` [Compound 32], the minimal effective concentration was no more than 1 µg/mL.

Same assay, conditions: Mus musculus, 72 h, Table 4, 3 days, minimum non-cytotoxic concentration at which melanin amount was 80% or less, read-out: Inhibitory effect on melanin production
With `O=C(Nc1nccs1)C1(c2ccccc2)CCCC1` [Compound 36] the minimal effective concentration was no more than 1 µg/mL.

Same assay, conditions: Table 1, 3 days, minimum non-cytotoxic concentration at which melanin amount was 80% or less
`CC(=O)c1sc(Nc2ccccc2C)nc1C` [Compound 6] was tested, and the “Inhibitory effect on melanin production” value was “∘”. With `Cc1cccc(C)c1Nc1nc(-c2ccccc2)cs1` [Compound 8] the “Inhibitory effect on melanin production” value was “⊚ (the minimum concentration for inhibition of melanin production was 1 ppm or less.)”.

Same assay, conditions: Table 3, 3 days, minimum non-cytotoxic concentration at which melanin amount was 80% or less
In the case of `CCC1CSC(Nc2ccccc2)=N1` (centres unmarked) [Compound 19], the “Inhibitory effect on melanin production” value is reported as “⊚ (the minimum concentration for inhibition of melanin production was 1 ppm or less.)”. For `c1ccc(NC2=NCCS2)cc1` [Compound 20], the “Inhibitory effect on melanin production” value was “∘”. With `CC1CN=C(Nc2ccccc2)S1` (centres unmarked) [Compound 21] the “Inhibitory effect on melanin production” value was “⊚ (the minimum concentration for inhibition of melanin production was 1 ppm or less.)”. For `Cc1ccccc1NC1=NCCS1` [Compound 22], the “Inhibitory effect on melanin production” value was “⊚ (the minimum concentration for inhibition of melanin production was 1 ppm or less.)”. For `COc1ccccc1NC1=NCCS1` [Compound 23], the “Inhibitory effect on melanin production” value was “⊚ (the minimum concentration for inhibition of melanin production was 1 ppm or less.)”. `COc1ccc(NC2=NC(C)(C)CS2)cc1` [Compound 24] was tested, and the “Inhibitory effect on melanin production” value was “∘”. `COc1cccc(NC2=NC(C)(C)CS2)c1` [Compound 25] was tested, and the “Inhibitory effect on melanin production” value was “∘”. `COc1ccccc1NC1=NC(C)(C)CS1` [Compound 26] was tested, and the “Inhibitory effect on melanin production” value was “∘”. `Cc1ccc(NC2=NC(C)CS2)c(C)c1` (centres unmarked) [Compound 27] was tested, and the “Inhibitory effect on melanin production” value was “∘”. `Cc1ccccc1NC1=NCC(C)(C)S1` [Compound 28] was tested, and the “Inhibitory effect on melanin production” value was “⊚ (the minimum concentration for inhibition of melanin production was 1 ppm or less.)”. In the case of `OCC1(CO)CSC(Nc2ccccc2)=N1` [Compound 29], the “Inhibitory effect on melanin production” value is reported as “∘”. With `Cc1cc(C)c(NC2=NC(CO)(CO)CS2)c(C)c1` [Compound 30] the “Inhibitory effect on melanin production” value was “∘”.

Same assay, conditions: Table 4, 3 days, minimum non-cytotoxic concentration at which melanin amount was 80% or less
In the case of `Cc1nc(NC(C)(C)C)sc1-c1ccccc1` [Compound 33], the “Inhibitory effect on melanin production” value is reported as “⊚ (the minimum concentration for inhibition of melanin production was 1 ppm or less.)”. For `Cc1ccc(C(=O)Nc2nc(C)cs2)cc1` [Compound 34], the “Inhibitory effect on melanin production” value was “∘”. For `O=C(Nc1nc2c(s1)CCCC2)c1ccccc1` [Compound 35], the “Inhibitory effect on melanin production” value was “⊚ (the minimum concentration for inhibition of melanin production was 1 ppm or less.)”. In the case of `Cc1ccc2oc(Nc3nc(C)cc(O)n3)nc2c1` [Compound 37], the “Inhibitory effect on melanin production” value is reported as “∘”.

Same assay, conditions: Table 5, 3 days, minimum non-cytotoxic concentration at which melanin amount was 80% or less
In the case of `CC1(C)CN=C(Nc2cccnc2)S1` [Compound 38], the “Inhibitory effect on melanin production” value is reported as “∘”. `CC1(C)CN=C(NC2CCCCC2)S1` [Compound 39] was tested, and the “Inhibitory effect on melanin production” value was “∘”. For `CC1(C)CN=C(NCc2ccccc2)S1` [Compound 40], the “Inhibitory effect on melanin production” value was “∘”.
